Assay results published in article PMC9414986, “Phytochemical Characterization of Cannabis sativa L. Chemotype V Reveals Three New Dihydrophenanthrenoids That Favorably Reprogram Lipid Mediator Biosynthesis in Macrophages” (Plants, 2022).

How the values were obtained:
cell apoptosis = test system: cell apoptosis; design: method as in PMID 18840408, PMID 18262737; details: cited from earlier work
[1] = test system: soluble epoxide hydrolase (sEH); assay: cellular sEH activity (DHETs/EETs ratio) in human M2 macrophages; assay type: cell-based
Text: (§1) Leukocyte reduction system chamber (LRSC) filters were provided by the Central Institute for Blood Transfusion and Immunological Department of Tirol Kliniken GmbH (Austria) with the informed consent of the volunteers. Only healthy blood donors between 18 and 65 years of age without medication for chronic diseases, fever, or deficiency symptoms and after physical examinations by trained medical personnel were included in the study. Human peripheral blood mononuclear cells (PBMC) were freshly isolated from LRSC filters. […]
(§2) Lipid mediator biosynthesis in human M1/M2 macrophages (1.5 mL PBS pH 7.4 plus 1 mM CaCl2) was stimulated with Staphylococcus aureus (LS1)-conditioned medium (1.0%, 3 h) after 15 min preincubation with DMSO (0.1%) or test compounds and stopped by addition of ice-cold MeOH (2.5 mL) containing deuterium-labeled internal standards (200 pg d8-5S-hydroxyeicosatetraenoic acid (HETE), d4-leukotriene (LT)B4, d5-lipoxin (LX)A4, d5-resolvin (Rv)D2, d4-prostaglandin (PG)E2, and 2000 pg d8-arachidonic acid (Cayman Chemical, Ann Arbor, MI, USA)). […] Transitions selected for quantitation and the corresponding declustering potential (DP), entrance potential (EP), collision energy (CE) and collision cell exit potential (CXP) are listed in Table 4. […]

5-LOX product formation = 5-LOX product formation in activated human M1 macrophages (metabololipidomics); details: Macrophage, cell-based, Staphylococcus aureus-conditioned medium 1.0%, 3 h, 15 min preincubation, read-out: IC50 for inhibition of 5-LOX product formation
Text: (§3) Leukocyte reduction system chamber (LRSC) filters were provided by the Central Institute for Blood Transfusion and Immunological Department of Tirol Kliniken GmbH (Austria) with the informed consent of the volunteers. Only healthy blood donors between 18 and 65 years of age without medication for chronic diseases, fever, or deficiency symptoms and after physical examinations by trained medical personnel were included in the study. Human peripheral blood mononuclear cells (PBMC) were freshly isolated from LRSC filters. After dilution of the cell concentrates in PBS pH 7.4 containing 12.5 mM citrate and 14 mM glucose (130 mL, 37 °C), immune cells were separated via isopycnic density gradient centrifugation (400× g, 20 min, RT) using Histopaque®-1077 (Sigma-Alrich, St. Louis, MO, USA). PBMC were obtained from the interphase after hypotonic lysis of erythrocytes using water (2–5 mL) and two consecutive washing steps with PBS pH 7.4 (50 mL) (270× g, 5 min, RT). […]
(§4) Lipid mediator biosynthesis in human M1/M2 macrophages (1.5 mL PBS pH 7.4 plus 1 mM CaCl2) was stimulated with Staphylococcus aureus (LS1)-conditioned medium (1.0%, 3 h) after 15 min preincubation with DMSO (0.1%) or test compounds and stopped by addition of ice-cold MeOH (2.5 mL) containing deuterium-labeled internal standards (200 pg d8-5S-hydroxyeicosatetraenoic acid (HETE), d4-leukotriene (LT)B4, d5-lipoxin (LX)A4, d5-resolvin (Rv)D2, d4-prostaglandin (PG)E2, and 2000 pg d8-arachidonic acid (Cayman Chemical, Ann Arbor, MI, USA)). […] The gradient of mobile phase A (water/MeOH, 90/10, 0.01% acetic acid) and mobile phase B (MeOH, 0.01% acetic acid) was ramped at a flow rate of 0.35 mL/min from 35.6% to 84.4% B within 12.5 min followed by 5 min of isocratic elution at 97.8% B. Lipid mediators and fatty acids were analyzed in the negative ion mode by scheduled multiple reaction monitoring (detection window: 120 s) using a QTRAP 6500^+ Mass Spectrometer (Sciex), which was equipped with an electrospray ionization source. […]

human M2 macrophages = assay: lipid mediator profile (SPMs, precursors, free PUFAs) in activated human M2 macrophages; assay type: cell-based
Text: Leukocyte reduction system chamber (LRSC) filters were provided by the Central Institute for Blood Transfusion and Immunological Department of Tirol Kliniken GmbH (Austria) with the informed consent of the volunteers. Only healthy blood donors between 18 and 65 years of age without medication for chronic diseases, fever, or deficiency symptoms and after physical examinations by trained medical personnel were included in the study. Human peripheral blood mononuclear cells (PBMC) were freshly isolated from LRSC filters. After dilution of the cell concentrates in PBS pH 7.4 containing 12.5 mM citrate and 14 mM glucose (130 mL, 37 °C), immune cells were separated via isopycnic density gradient centrifugation (400× g, 20 min, RT) using Histopaque®-1077 (Sigma-Alrich, St. Louis, MO, USA). PBMC were obtained from the interphase after hypotonic lysis of erythrocytes using water (2–5 mL) and two consecutive washing steps with PBS pH 7.4 (50 mL) (270× g, 5 min, RT).
To differentiate monocytes, which are the predominant cell type in PBMC, towards M0 macrophages, they were first stimulated with 20 ng/mL GM-CSF or M-CSF (HiSS Diagnostics GmbH, Freiburg, Germany) for 6 days in macrophage medium (RPMI 1640 supplemented with 10% FCS, 2 mmol/L L-glutamine, 100 U/mL penicillin and 100 μg/mL streptomycin). These monocyte-derived macrophages were polarized for another 48 h in macrophage medium with 100 ng/mL lipopolysaccharide and 20 ng/mL interferon-γ (Peprotech, Hamburg, Germany) to obtain M1 or with 20 ng/mL interleukin-4 (Peprotech, Hamburg, Germany) to obtain M2 phenotypes.
Lipid mediator biosynthesis in human M1/M2 macrophages (1.5 mL PBS pH 7.4 plus 1 mM CaCl2) was stimulated with Staphylococcus aureus (LS1)-conditioned medium (1.0%, 3 h) after 15 min preincubation with DMSO (0.1%) or test compounds and stopped by addition of ice-cold MeOH (2.5 mL) containing deuterium-labeled internal standards (200 pg d8-5S-hydroxyeicosatetraenoic acid (HETE), d4-leukotriene (LT)B4, d5-lipoxin (LX)A4, d5-resolvin (Rv)D2, d4-prostaglandin (PG)E2, and 2000 pg d8-arachidonic acid (Cayman Chemical, Ann Arbor, MI, USA)). Samples were incubated at −20 °C for at least 1 h to precipitate proteins and then centrifuged (750× g, 10 min, 4 °C). The supernatant was mixed with acidified water (7 mL, pH 3.5) and loaded onto solid phase cartridges (Sep-Pak® Vac 6cc 500 mg/6 mL C-18 (Waters, Milford, MA, USA)), which were conditioned with MeOH (6 mL) and equilibrated with water (2 mL). Columns were washed with water (6 mL) and hexane (6 mL, 4 °C) before lipid mediators were eluted with methyl formiate (6 mL). The organic phase was evaporated to dryness using a TurboVap LV (Biotage, Uppsala, Sweden) and the remaining lipids were dissolved in MeOH/water (1:1), centrifuged twice (21,100× g, 4 °C, 5 min), and subjected to UPLC-MS/MS analysis. Chromatographic separation of lipid mediators was carried out at 55°C on an Acquity UPLC BEH C-18 column (130Å, 1.7 μm, 2.1 × 100 mm, Waters) using an ExionLC AD UHPLC system (Sciex, Framingham, MA, USA). The gradient of mobile phase A (water/MeOH, 90/10, 0.01% acetic acid) and mobile phase B (MeOH, 0.01% acetic acid) was ramped at a flow rate of 0.35 mL/min from 35.6% to 84.4% B within 12.5 min followed by 5 min of isocratic elution at 97.8% B. Lipid mediators and fatty acids were analyzed in the negative ion mode by scheduled multiple reaction monitoring (detection window: 120 s) using a QTRAP 6500^+ Mass Spectrometer (Sciex), which was equipped with an electrospray ionization source. The curtain gas was set to 40 psi, the collision gas to medium, the ion spray voltage to −4000 V, the heated capillary temperature to 500 °C, and the sheath and auxiliary gas pressure to 40 psi. Transitions selected for quantitation and the corresponding declustering potential (DP), entrance potential (EP), collision energy (CE) and collision cell exit potential (CXP) are listed in Table 4. […]

human recombinant 5-LOX = target: T1, human recombinant 5-LOX (Homo sapiens, UniProt P09917); assay: cell-free 5-lipoxygenase activity assay; assay type: biochemical; details: arachidonic acid 20 µM, 10 min at 37 °C, read-out: IC50 for inhibition of human recombinant 5-LOX
T1 construct: purchased Cayman Chemical
T1 sequence (P09917 1-674): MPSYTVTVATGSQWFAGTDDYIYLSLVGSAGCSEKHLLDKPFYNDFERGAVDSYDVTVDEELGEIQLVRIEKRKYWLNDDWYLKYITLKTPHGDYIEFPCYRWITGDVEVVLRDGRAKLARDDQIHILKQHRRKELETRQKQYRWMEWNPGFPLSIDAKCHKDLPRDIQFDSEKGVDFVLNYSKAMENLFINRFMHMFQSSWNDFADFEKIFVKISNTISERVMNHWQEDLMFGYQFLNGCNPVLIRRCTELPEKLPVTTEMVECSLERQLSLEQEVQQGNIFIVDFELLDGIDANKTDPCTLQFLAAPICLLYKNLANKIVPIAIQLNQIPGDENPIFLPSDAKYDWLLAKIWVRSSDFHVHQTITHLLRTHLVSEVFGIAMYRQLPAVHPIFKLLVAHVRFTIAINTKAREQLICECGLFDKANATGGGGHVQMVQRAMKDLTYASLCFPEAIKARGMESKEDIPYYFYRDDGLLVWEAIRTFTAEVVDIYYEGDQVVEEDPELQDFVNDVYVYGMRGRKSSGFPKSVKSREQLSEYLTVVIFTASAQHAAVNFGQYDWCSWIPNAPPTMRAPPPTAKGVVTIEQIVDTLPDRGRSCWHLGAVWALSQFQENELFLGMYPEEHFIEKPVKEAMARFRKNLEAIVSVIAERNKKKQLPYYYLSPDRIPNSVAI
Method: Human recombinant 5-LOX (Cayman Chemical, 10 U) was pre-treated with vehicle (DMSO, 0.1%) or test compounds for 10 min in 1 mL PBS pH 7.4, 1 mM EDTA and 1 mM ATP on ice before CaCl2 (2 mM) and arachidonic acid (20 µM) were added. After 10 min at 37 °C, the reaction was stopped by the addition of ice-cold MeOH (1 mL) and PGB1 (2 ng) as internal standard. Clean-Up C-18 Endcapped SPE cartridges (100 mg, 10 mL, UCT, Bristol, PA, USA) were conditioned with MeOH (1 mL, twice) and equilibrated with water (1 mL). After acidification (530 µL PBS plus 60 mM HCl) and centrifugation (750× g, 10 min, 4 °C), supernatants containing lipid mediators were loaded onto the columns, which were first washed with water (1 mL) and then MeOH/water (25:75, 1 mL). After elution of lipid mediators with MeOH (300 µL), water (120 µL) was added and samples were centrifuged (21,100× g, 10 min, 4 °C) and subjected to LC-PDA analysis. 5-LOX products, including all trans-isomers of LTB4 and 5-HETE, were separated at 40 °C and a flow rate of 0.45 mL/min on a Kinetex C-18 LC column (100Å, 1.3 μm, 2.1 × 50 mm, Phenomenex, Torrance, CA) using a Nexera X2 UHPLC system (Shimadzu, Kyoto, Japan). The step gradient of mobile phase A (water/MeOH, 50/50, 0.05% trifluoroacetic acid) and mobile phase B (MeOH, 0.05% trifluoroacetic acid) was kept at 14% B for 2 min, followed by 46% B for 2 min and 90% B for another 2 min. LTB4 isomers and 5-HETE were detected with a photodiode array detector (SPD-M20A, Shimadzu, Kioto, Japan) at 280 nm and 235 nm, respectively. Lipid quantitieswere calculated by internal calibration using PGB1 as reference standard.
Data are expressed as mean ± s.e.m. and single data from n = 4–8 independent experiments. […] Data were analyzed using Microsoft Excel (Office 365, Version: 2204, Albuquerque, New Mexico), and statistics were performed using GraphPad Prism (GraphPad Software version 9.3.1, Dotmatics, Boston, UK). IC50 values were calculated by non-linear regression (GraphPad Prism 9.3.1).

12/15-LOX product levels = assay: 12- and 15-LOX product levels in activated macrophages; assay type: cell-based, human
Text: as §1, §2

COX product formation = COX product formation in activated human M1 macrophages (metabololipidomics); assay type: cell-based
Text: as §3, §4

[2] = test system: 5-lipoxygenase (5-LOX) pathway; design: method as in PMID 28165233; details: cited from earlier work
[3] = test system: microsomal prostaglandin E2 synthase (mPGES)-1; design: method as in doi:10.1016/j.phanu.2014.05.001; details: cited from earlier work

COC1=CC(=O)c2ccc3cc(OC)cc(O)c3c2C1=O [Compound 4, denbinobin]
cell apoptosis induction (cell apoptosis): cell apoptosis-inducing properties

COC1=CC(=O)C2=C(C1=O)c1c(cc(OC)cc1OC)CC2 [Compound 5, 9,10-dihydro-3,5,7-trimethoxy-1,4-phenanthrenequinone]
ratio of DHETs/EETs (indicator of sEH activity) [1]: significantly elevated | IC50 (5-LOX product formation): 1 µM | D-series Rv (RvDs) levels (human M2 macrophages): but not RvDs levels | maresin 2 (MaR2) levels (human M2 macrophages): elevated | protectins (PDs) levels (human M2 macrophages): elevated | release of polyunsaturated fatty acids (PUFAs) (human M2 macrophages): decreased | IC50 (human recombinant 5-LOX): 20.1 µM | 12/15-LOX product levels (12/15-LOX product levels): slightly but significantly lowered | IC50 (COX product formation; Macrophage, cell-based, Staphylococcus aureus-conditioned medium, read-out: IC50 for inhibition of COX product (prostanoid) formation): 2000 nM

COc1cc(O)cc(CCc2ccc(OC)c(O)c2CC=C(C)C)c1 [Compound 6, canniprene]
production of inflammatory eicosanoids via the 5-LOX pathway [2]: potently inhibits

COc1cc(-c2cc(=O)c3c(O)c(C/C=C(\C)CCC=C(C)C)c(O)cc3o2)ccc1O [Compound 7a, cannflavin A]
inhibition of mPGES-1 [3]: potent inhibitors

COc1cc(-c2cc(=O)c3c(O)c(CC=C(C)C)c(O)cc3o2)ccc1O [Compound 8, cannflavin B]
inhibition of mPGES-1 [3]: potent inhibitors

COc1cc(O)c2c(c1)CCc1cc(OC)c(OC)c(O)c1-2 [Compound 9, 9,10-dihydro-2,3,7-trimethoxy-4,5-phenanthrenediol]
IC50 (5-LOX product formation): 3.8 µM | D-series Rv (RvDs) levels (human M2 macrophages): raised | formation of SPM precursors, including 17-HDHA, 15-HEPE and 15-HETE (human M2 macrophages): enhanced formation | maresin 2 (MaR2) levels (human M2 macrophages): raised | production of specialized pro-resolving mediators (SPMs) (human M2 macrophages): stimulated | protectins (PDs) levels (human M2 macrophages): raised | IC50 (human recombinant 5-LOX): 6.9 µM | effect on COX product formation (COX product formation): substantially elevated

COc1cc2c(c(OC)c1O)-c1c(ccc(OC)c1O)CC2 [Compound 10, 9,10-dihydro-2,4,6-trimethoxy-3,5-phenanthrenediol]
ratio of DHETs/EETs (indicator of sEH activity) [1]: only increased by trend | IC50 (5-LOX product formation): 8.5 µM | maresin 2 (MaR2) levels (human M2 macrophages): selectively increased | production of specialized pro-resolving mediators (SPMs) (human M2 macrophages): stimulated | IC50 (human recombinant 5-LOX): 4.6 µM | effect on COX product formation (COX product formation): substantially elevated
